Reference: patent US20250214977A1, “STAT6 INHIBITORS AND USES THEREOF” (Kymera Therapeutics, Inc., priority 2024, published 2025)

tested on: Phosphorylation of STAT6 in human A549 cells; test: Phosphorylated STAT6 (pSTAT6) flow cytometry assay in human A549 cells; type: cell-based; conditions: read-out: STAT6 IL4 pSTAT6 assay in A549 cells: Average IC50
Source text: Example 3. Phosphorylated STAT6 (pSTAT6) Flow Cytometry Assay in Human A549 Cells
Phosphorylation of STAT6 in human A549 cells was quantitatively measured using flow cytometry technology.

Compound | IC50
COc1ccncc1-c1cc(C2=CCCN(C(=O)CCn3ccnn3)C2)c(F)c2[nH]c(C(=O)N3CCN(c4nccnc4OC)CC3)cc12 [Example I-441] | < 100 nM
CN(C)C(=O)c1cc2cc(C3=CCCN(C(=O)CCc4nccs4)C3)ccc2o1 [Example I-815] | 100 to 1000 nM
COc1cc(F)cnc1N1CCN(C(=O)c2cc3c(-c4cccc5cnccc45)cc(C4=CCCN(C(=O)CCn5ccnn5)C4)c(F)c3[nH]2)CC1 [Example I-1119] | < 100 nM
COc1ccncc1-c1cc(C2=CCCN(C(=O)CCn3ccnn3)C2)c(F)c2[nH]c(C(=O)N3CC=C(c4ncccc4OC)CC3)cc12 [Example I-452] | > 100000 nM
COc1ccccc1C(=O)N1CCN(C(=O)c2cc3c(-c4ccccc4OC)cc(C4=CCCN(C(=O)CCn5ccnn5)C4)c(F)c3[nH]2)CC1 [Example I-991] | < 100 nM
CN(C)C(=O)c1cc2c(F)c(C3=CCCN(C(=O)C4Cc5ccccc5CN4C=O)C3)ccc2o1 (stereo not shown) [Example I-1192] | 1000 to 10000 nM
COc1cc(F)cnc1N1CCN(C(=O)c2cc3c(-c4ccc(-c5cccnc5)cc4)cc(C4=CCCN(C(=O)CCn5ccnn5)C4)c(F)c3[nH]2)CC1 [Example I-1152] | < 100 nM
COc1ccc(F)cc1-c1cc(C2=CCCN(C(=O)CCn3ccnn3)C2)c(F)c2[nH]c(C(=O)N3CCN(c4ncccc4OC)CC3)cc12 [Example I-395] | > 100000 nM
CCOc1ccncc1-c1cc(C2=CCCN(C(=O)CCn3ccnn3)C2)c(F)c2[nH]c(C(=O)N3CCN(c4nccnc4OC)CC3)cc12 [Example I-478] | < 100 nM
COc1cc(F)cnc1N1CCN(C(=O)c2cc3c(-c4ccc5c(c4)c(C4CC4)nn5C)cc(C4=CCCN(C(=O)CCn5ccnn5)C4)c(F)c3[nH]2)CC1 [Example I-622] | < 100 nM
Cc1cc(C)c(-c2cc(C3=CCCN(C(=O)CCn4ccnn4)C3)cc3cc(C(=O)N(C)C)oc23)cc1C [Example I-856] | < 100 nM
COc1ccccc1-c1cc(C2=CCCN(C(=O)CCn3ccnn3)C2)c(F)c2[nH]c(C(=O)N3CCN(c4ccncc4OC)CC3)cc12 [Example I-365] | < 100 nM
COc1cc(F)cnc1N1CCN(C(=O)c2cc(-c3cccnc3C3CC3)c3c(c2)cc(C2=CCCN(C(=O)CCn4ccnn4)C2)n3CC2CC2)CC1 [Example I-728] | > 100000 nM
COc1ccccc1-c1cc(C2=CCCN(C(=O)CCn3ccnn3)C2)c(F)c2[nH]c(C(=O)N3CCN(c4nccc(C)c4OC)CC3)cc12 [Example I-415] | < 100 nM
CCc1ccncc1-c1cc(C2=CCCC(C(=O)O)C2)c(F)c2[nH]c(C(=O)N3CCN(c4ncc(F)cc4OC)CC3)cc12 (stereo not shown) [Example I-1205] | 1000 to 10000 nM
COc1ccccc1-c1cc(C2=CCCN(C(=O)CCn3ccnn3)C2)c(F)c2[nH]c(C(=O)Nc3ccnn3C)cc12 [Example I-993] | 100 to 1000 nM
CN(C)C(=O)c1cc2ccc(C3CCCN(C(=O)CCn4ccnn4)C3)cc2[nH]1 (stereo not shown) [Example I-1188] | 100 to 1000 nM
C#CCOC1CCN(C(=O)c2cc3c(-c4ccccc4OC)cc(C4=CCCN(C(=O)CCn5ccnn5)C4)c(F)c3[nH]2)CC1 [Example I-1001] | < 100 nM

Next, values leading:

IC50 | Compound
< 100 nM | COc1ccccc1-c1cc(C2=CCCN(C(=O)CCn3ccnn3)C2)c(F)c2[nH]c(C(=O)N3CCC(c4cccnc4C)CC3)cc12 [Example I-1002]
< 100 nM | COc1cc2c(-c3cc(C4=CCCN(C(=O)CCn5ccnn5)C4)c(F)c4[nH]c(C(=O)N5CCN(c6ncc(F)cc6OC)CC5)cc34)ccnc2cc1F [Example I-691]
< 100 nM | COc1ccccc1-c1cc(C2=CCCN(C(=O)CCn3ccnn3)C2)c(F)c2[nH]c(C(=O)N3CCN(c4ncccc4OC(F)(F)F)CC3)cc12 [Example I-331, 1-(5-(7-fluoro-4-(2-methoxyphenyl)-2-(4-(3-(trifluoromethoxy)pyridin-2-yl)piperazine-1-carbonyl)-1H-indol-6-yl)-3,6-dihydropyridin-1(2H)-yl)-3-(1H-1,2,3-triazol-1-yl)propan-1-one]
< 100 nM | COc1ccc(F)cc1-c1cc(C2=CCCN(C(=O)CCn3ccnn3)C2)c(F)c2[nH]c(C(=O)N3CCN(c4ccccc4OC)CC3)cc12 [Example I-566]
< 100 nM | COc1cc(F)ccc1-c1cc(C2=CCCN(C(=O)CCn3ccnn3)C2)c(F)c2[nH]c(C(=O)N3CCN(c4ccccc4OC)CC3)cc12 [Example I-598]
< 100 nM | CCc1ccncc1-c1cc(C2=CCCN(C(=O)CCn3ccnn3)C2)c(F)c2[nH]c(C(=O)N3CCN(c4ncccc4OC)CC3)cc12 [Example I-561]
< 100 nM | CN(C)C(=O)c1cc2ccc([C@H]3CCCN(C(=O)CCn4ccnn4)C3)c(F)c2[nH]1 (single isomer, unassigned) [Example I-1187]
< 100 nM | COc1ccccc1-c1cc(C2CCCN(C(=O)CCn3ccnn3)C2)c(F)c2[nH]c(C(=O)N3CCN(c4ncccc4OC)CC3)cc12 (stereo not shown) [Example I-348]
< 100 nM | COc1ccccc1-c1cc(C2=CCCN(C(=O)CCn3ccnn3)C2)c(F)c2[nH]c(C(=O)N3CCN(c4ccnn4C)CC3)cc12 [Example I-1025]
< 100 nM | COc1ccccc1-c1cc(C2=CCCN(C(=O)CCn3ccnn3)C2)c(F)c2[nH]c(C(=O)N3CCCC3)cc12 [Example I-842]
< 100 nM | COc1cc(F)cnc1N1CCN(C(=O)c2cc3c(-c4ccc(C(C)N5CCOCC5)cc4)cc(C4=CCCN(C(=O)CCn5ccnn5)C4)c(F)c3[nH]2)CC1 (stereo not shown) [Example I-1121]
> 100000 nM | COc1cc(F)cnc1N1CCN(C(=O)c2cc3c(C4CC4)cc(C4=CCCN(C(=O)CCn5ccnn5)C4)c(F)c3[nH]2)CC1 [Example I-694]
< 100 nM | COc1ccccc1-c1cc(C2=CCCN(C(=O)CCn3ccnn3)C2)c(F)c2[nH]c(C(=O)N3CCN(c4ncccc4Cl)CC3)cc12 [Example I-324]
< 100 nM | COc1ccncc1-c1cc(C2=CCCN(C(=O)CCn3ccnn3)C2)c(F)c2[nH]c(C(=O)N3CCN(C4CC4)CC3)cc12 [Example I-587]
100 to 1000 nM | COc1cc(C)c(N2CCN(C(=O)c3cc4c(-c5ccccc5OC)cc(C5=CCCN(C(=O)CCn6ccnn6)C5)c(F)c4[nH]3)CC2)c(C)n1 [Example I-958]
< 100 nM | COc1cccnc1C1=CCN(C(=O)c2cc3c(-c4cnc5ccccc5c4OC)cc(C4=CCCN(C(=O)CCn5ccnn5)C4)c(F)c3[nH]2)CC1 [Example I-451]
< 100 nM | COc1cc(F)cnc1N1CCN(C(=O)c2cc3c(-c4cccc5c4OCCCO5)cc(C4=CCCN(C(=O)CCn5ccnn5)C4)c(F)c3[nH]2)CC1 [Example I-678]
< 100 nM | (1S)-3-[4-(4-ethyl-3-pyridyl)-7-fluoro-2-[4-(5-fluoro-3-methoxy-2-pyridyl)piperazine-1-carbonyl]-1H-indol-6-yl]cyclohex-3-ene-1-carboxylic acid [Example I-809]
< 100 nM | COc1cc(F)cnc1N1CCN(C(=O)c2cc3c(-c4ccc(C5(C#N)CC5)cc4)cc(C4=CCCN(C(=O)CCn5ccnn5)C4)c(F)c3[nH]2)CC1 [Example I-1140]
< 100 nM | COCCCOc1ccc(-c2cc(C3=CCCN(C(=O)CCn4ccnn4)C3)c(F)c3[nH]c(C(=O)N4CCN(c5ncc(F)cc5OC)CC4)cc23)cc1 [Example I-1112]
< 100 nM | COc1cc(N(C)C)ccc1-c1cc(C2=CCCN(C(=O)CCn3ccnn3)C2)c(F)c2[nH]c(C(=O)N3CCN(c4ncc(Cl)cc4OC)CC3)cc12 [Example I-1039]
100 to 1000 nM | COc1ccccc1-c1cc(C2=CCCN(C(=O)CCn3ccnn3)C2)c(F)c2[nH]c(C(=O)N3CCN(c4cccc(OC(F)(F)F)n4)CC3)cc12 [Example I-430]
